Here are results for two compounds from patent US10370376B2, “Amorphous substance of Idelalisib and preparation method therefor” (Alnova Pharmaceuticals, Ltd., priority 2015, dated 2019).

Holding throughout (type): physicochemical
Data set [1] can be described thus: Impact factor test of the amorphous Idelalisib (high temperature, high humidity; HPLC and XRPD).
A short description of data set [2]: Accelerated stability test of the amorphous Idelalisib (HPLC and XRPD). The note with it: for Crystalline (XRPD) / Relevant substances (Total impurities %): Temperature 40° C. ± 2° C., Humidity 75% ± 5%. The method, then:
Experiment conditions: temperature 40° C.±2° C., humidity 75%±5% The substance was detected by HPLC.

A short description of data set [3]: Determination of apparent solubility (saturation solubility by HPLC) in diluents of different pH. The settings on record: pH 4.5 diluent, 37° C., shaken 12 hours, average of 3.
Experiment in data set [4]: as above
The settings on record: for solubility at 12 h: 37 °C, thermodynamic from solid; for solubility at 12 h / Apparent solubility: shaken 12 hours, average of 3; for Apparent solubility: 37° C. How it is done: The crystalline Idelalisib, Form I, was prepared according to the method of Example 1 of U.S. Pat. No. 8,865,730.
Determination of apparent solubility: weigh a certain amount of the sample into a 1.8 mL of centrifuge tube, add 1 mL of the specified pH diluent, cap tightly. Each solution was prepared with 3 replicates (the amount of the added sample must be much larger than of which can be formed a saturated solution at different pH, details were shown in Table 1), and then 1 mL of the designated pH diluent was added. Then the centrifuge tube containing the test solution was shaken in a water bath at 37° C.±0.5° C. for 12 hours, let Stand in an oven at 37° C. for 2 hours. The upper lay was filtered through a […] microporous membrane. Pipette 200 uL of the filtrated solution into a vial containing 200 uL of acetonitrile, shaken to mix. Label it as test solution. Inject 2 uL of the test solution to HPLC system, record the peak area of main peak. Inject the reference standard solution following the same procedure as the test solution, record the peak area of the main peak of reference standard. According to the main peak area of the test solution and the reference solution, the concentration of the reference solution and the concentration of the test solution are calculated by external standard method. Then the saturation solubility will be obtained by multiplying concentration by the dilution factor of 2. The final result of saturation solubility is the average result of three parallel test samples.
Preparation of reference standard solution: accurately weight about 25 mg of Idelalisib (Form I) into a 25 mL of volumetric flask, dissolve and dilute to the volume with diluent (acetonitrile:water=1:1). The concentration of the reference standard is about 1 mg/mL.
Preparation of Diluents of Different pH:
(1) pH=1.0 diluent: Add 9 mL of concentrated HCl to a 1000 mL of volumetric flask, diluted to the volume with water.
(2) pH=2.0 diluent: Solution A: Transfer 16.6 mL of phosphoric acid to a 100 mL volumetric flask, dilute to the volume with water, shake to mix. Solution B: Weigh and transfer 71.63 g of […] to a 1000 mL of volumetric flask, dilute to the volume with water, dissolve and mix well. Mix 72.5 mL of solution A and 27.5 mL of solution B.
(3) pH=3.0 diluent: transfer 50 mL of glacial acetic acid to a 1000 mL of volumetric flask, add 800 mL of water, adjust pH to 3.0 with lithium hydroxide, then diluted to the volume with water.
(4) pH=4.0 diluent: weigh and transfer 7.7 g of ammonium acetate, dissolve with 50 mL of water, add 6 mL of glacial acetic acid, then diluted to 100 mL with water.
(5) pH=5.6 diluent: Phthalate buffer (pH 5.6): Transfer 10 g of potassium hydrogen phthalate, add 900 mL of water, stir to dissolve, adjust pH to 5.6 with sodium hydroxide solution (or diluted hydrochloric acid if necessary) then diluted to the volume with water.
(6) pH=6.8 diluent: mix 250 mL of 0.2 mol/L potassium dihydrogen phosphate solution and 118 mL of 0.2 mol/L sodium hydroxide solution, diluted to 1000 mL with water, shaken to mix.
(7) pH=7.4 diluent: transfer 1.36 g of potassium dihydrogen phosphate, add 79 mL of 0.1 mol/L sodium hydroxide solution, diluted to 200 mL with water.

Where [5] appears, read: high temperature, high humidity after 10 days.
[6] abbreviates: accelerated test conditions after 6 months.

≈ marks a conversion by molar mass, not a printed value.

What is called solubility is the concentration that dissolves in the medium under given conditions. For the compound `CC[C@H](Nc1ncnc2[nH]cnc12)c1nc2cccc(F)c2c(=O)n1-c1ccccc1` [amorphous Idelalisib, 5-fluoro-3-phenyl-2-[(1S)-1-(9H-purin-6-ylamino)propyl]-4(3H)-quinazolinone], the “Crystalline (XRPD)” value was “There is no peak of crystalline Idelalisib” in data set [1] (0 day); “There is no peak of crystalline Idelalisib” in data set [1] (5 days, all four conditions (40° C., 60° C., humidity 75%, 90%)); “There is no peak of crystalline Idelalisib” in data set [1] (10 days, all four conditions (40° C., 60° C., humidity 75%, 90%)); “There is no peak of crystalline Idelalisib” in data set [2] (0 month); “There is no peak of crystalline Idelalisib” in data set [2] (1 month); “There is no peak of crystalline Idelalisib” in data set [2] (2 months). In addition, the “Crystalline (XRPD)” value in data set [2] (3 months) and in data set [2] (6 months) was “There is no peak of crystalline Idelalisib” each time. Further, the “Relevant substances (Total impurities %)” value came out at 0.12% in data set [1] (0 day); 0.14% in data set [1] (5 days, Humidity 75% ± 5%); 0.16% in data set [1] (5 days, Humidity 90% ± 5%); 0.13% in data set [1] (5 days, Temperature 40° C. ± 2° C.); 0.14% in data set [1] (5 days, Temperature 60° C. ± 2° C.); 0.14% in data set [1] (10 days, Humidity 75% ± 5%). Besides, the “Relevant substances (Total impurities %)” value in data set [1] (10 days, Humidity 90% ± 5%) was 0.16%; in data set [1] (10 days, Temperature 40° C. ± 2° C.), 0.14%; in data set [1] (10 days, Temperature 60° C. ± 2° C.), 0.16%; in data set [2] (0 month), 0.12%; in data set [2] (1 month) it was 0.14%; in data set [2] (2 months), 0.15%. In addition, the “Relevant substances (Total impurities %)” value in data set [2] (3 months) amounted to 0.16%; in data set [2] (6 months) it was 0.19%. The “Changes in the relevant substances” value in data set [1] (setting [5]) and in data set [2] (setting [6]) was “no significant changes” each time. The “Crystallization of Idelalisib” value in data set [1] (setting [5]) and in data set [2] (setting [6]) was “no crystallization of Idelalisib was observed” each time. The Apparent solubility in data set [3] came out at 694.19 µg/mL; in data set [4] (pH 2.0 diluent), 7037.94 µg/mL; in data set [4] (pH 3.0 diluent) it was 1622.95 µg/mL. In addition, the “Apparent solubility compared with that of the Form I” value in data set [4] (at each pH (1.0 to 7.4)) was “significantly higher”. The solubility at 12 h in data set [4] (pH 1.0 diluent (dilute HCl), pH 1, simulated gastric fluid, pH 1.0 diluent) was 52700 µg/mL (≈ 127000 µM); in data set [4] (pH 5.6 diluent (phthalate buffer), pH 5.6, aqueous buffer, pH 5.6 diluent), 75.8 µg/mL (≈ 182 µM); in data set [4] (pH 6.8 diluent (phosphate buffer), pH 6.8, aqueous buffer, pH 6.8 diluent), 75.3 µg/mL (≈ 181 µM); in data set [4] (pH 7.4 diluent (phosphate buffer), pH 7.4, aqueous buffer, pH 7.4 diluent) it was 74.3 µg/mL (≈ 179 µM).
Take `CC[C@H](Nc1ncnc2[nH]cnc12)c1nc2cccc(F)c2c(=O)n1-c1ccccc1` [crystalline Idelalisib (Form I), 5-fluoro-3-phenyl-2-[(1S)-1-(9H-purin-6-ylamino)propyl]-4(3H)-quinazolinone, reference compound]: the Apparent solubility in data set [3] was 147.02 µg/mL; in data set [4] (pH 1.0 diluent), 34580.16 µg/mL; in data set [4] (pH 2.0 diluent), 1756.55 µg/mL; in data set [4] (pH 3.0 diluent), 317.47 µg/mL; in data set [4] (pH 5.6 diluent), 46.91 µg/mL; in data set [4] (pH 6.8 diluent), 47.35 µg/mL. The Apparent solubility in data set [4] (pH 7.4 diluent) was determined as 45.08 µg/mL.
